Biological target: T1, Casp6 in Casp6-transfected HCT116 cells (Homo sapiens, UniProt P55212)
T1 construct: The mammalian constructs encoding human Casp6p20p10 in the pCep4β vector; expressed in transfected cells; host or cells: HCT116 human colon carcinoma cells
T1 sequence (P55212 24-179): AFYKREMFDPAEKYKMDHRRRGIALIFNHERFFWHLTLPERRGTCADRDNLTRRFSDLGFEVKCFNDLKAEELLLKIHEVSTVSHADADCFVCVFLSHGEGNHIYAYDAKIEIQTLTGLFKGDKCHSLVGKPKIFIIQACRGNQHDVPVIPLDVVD
T1 sequence (P55212 194-293): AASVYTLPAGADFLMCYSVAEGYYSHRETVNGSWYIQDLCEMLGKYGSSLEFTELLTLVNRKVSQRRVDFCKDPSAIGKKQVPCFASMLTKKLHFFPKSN
Test: Casp6 VEIDase activity in extracts of Casp6p20p10-transfected HCT116 cells treated with inhibitor
Assay type: cell-based
Details: for Casp6 activity rise within 15 min of inhibitor removal / activity at 100 µM: 100 μM for 2 h, mean ± SEM; for Casp6 activity rise within 15 min of inhibitor removal: then fresh media 15 min; for decrease of Casp6 VEIDase activity within 15 min of treatment / decrease of Casp6 activity: 100 μM, Casp6-transfected HCT116; for decrease of Casp6 activity: 2 h; for activity at 100 µM: HCT-116, then fresh media 2 h, % of initial activity, read-out: Casp6 activity recovered 2 h after inhibitor removal; for IC50: cells treated for 2 h, read-out: IC50 on Casp6 activity in pCep4β-Casp6p20p10-transfected HCT116 cells
Procedure: HCT116: Human colon carcinoma (HCT116) cells (ATCC, Manassas, VA, USA) were cultured in McCoy’s 5A modified media (Thermo Fisher Scientific, Waltham, MA, USA) supplemented with 10% fetal bovine serum (Thermo Fisher Scientific, Waltham, MA, USA) and transfected with 1 μg of pCep4βCasp6p20p10 mixed with 8 μg of polyethyleneimine (Polysciences Inc., Warrington, PA, USA). Protein expression was allowed for 24 h before treating with vehicle (PBS), 100 μM NWL-117, or 100 μM NWL-154 for 2 h. For NWL inhibitor kinetic experiments, 100 μM of NWL-117 or NWL-154 was added at 120, 90, 60, 30, 15, or 0 min before harvest. […] For recovery time course experiments, after the initial treatment with 100 μM of NWL-117 or −154 for 2 h, the media was replaced with fresh media for 120, 90, 60, 30, 15, or 0 min before harvest. Primary Human CNS neurons: Cortical tissues were obtained from the Birth Defects Research Laboratory (BDRL, University of Washington, Seattle, USA) in accordance with NIH ethical guidelines approved by McGill University’s institutional review board and primary neurons cultured as previously described. Primary human neurons were seeded on poly-L-lysine-coated (5 μg/mL) 6-well plates or glass coverslips coated with poly-L-lysine and laminin (5 μg/mL) (Sigma-Aldrich, Oakville, ON, CA) at a density of 3x10^6 cells/mL. Primary human neurons were pre-treated with 0.1 μM epoxomicin (Enzo LifeSciences, Farmingdale, NY, USA) and 100 μM NWL-117, 100 μM NWL-154, or vehicle (PBS) for 2 h, and serum-deprived for 2 h in the presence of epoxomicin and vehicle (PBS), 100 μM NWL-117, or 100 μM NWL-154 before harvesting or measuring caspase activity with FLICA, as described below.
Recombinant or extracted cellular Casp6 activity: Casp6 activity was assessed by in vitro fluorogenic assays using Ac-Val-Glu-Ile-Asp-(7-Amino-4-trifluoromethylcouramin) (Ac-VEID-AFC: Enzo LifeSciences, NY, USA) as the Casp6 substrate. The activity was measured in Stennicke’s buffer (SB) (20 mM piperazine-N, N-bis (2-ethanesulfonic acid) (PIPES: BioShop Canada Inc, Burlington, Ontario, CA) pH 7.2, 30 mM NaCl, 1 mM ethylenediaminetetraacetic acid (EDTA), 0.1% 3-[(3-cholamidopropyl)-dimethylammonio]-2-hydroxy-1-propanesulfonic acid (CHAPS), 10% sucrose). The reaction mix consisted of either 20 nM RCasp6 or 20–30 μg cellular protein extracts, SB, 10 mM DTT, 10 μM VEID-AFC substrate and deionized water. The activity was measured in a black clear bottom 96-well plate (Costar, Corning, NY, USA) at 50 μL/well in triplicate at 37 °C in the Synergy H4 plate reader (BioTek) at excitation 380 nm and emission 505 nm every two minutes for 100 min. Fluorescence units were converted to the moles of AFC released based on a standard curve of 0–625 picomoles of free AFC. Cleavage rates were calculated from the linear phase of the assay. The activity is considered on a percentage scale where no inhibitor present is equated to 100% activity of the enzyme. Cellular Casp6 activity assay by FLICA: Active Casp6 was labeled within primary human neurons using the fluorescent inhibitor of Casp6 (FLICA) (FAM-VEID-fmk, ImmunoChemistry, Bloomington, MN, USA) following the manufacturer’s protocol. Briefly, FLICA reagent and Hoechst 33342 were added to a black clear bottom 96-well plate containing 100,000 of the treated-primary human neurons for 2 h at 37 °C in 5% CO2. The cells were rinsed twice with wash buffer and fresh media was added to the cells. The fluorescence of FAM-VEID-fmk was measured at 490 nm excitation and 520 nm emission with bandwidth reduced to 8 nm in the Synergy H4 plate reader (BioTek). The Hoechst signal was measured by excitation at 360 nm and emission at 485 nm.
The half-maximal inhibitory concentrations (IC50) for NWL inhibitors (Patent publication # WO/2009/140765, WO/2010/133000, and WO/2012/140500) was determined by incubating 0 to 20 μM NWL-117 and NWL-154 with 20 nM of active site-titrated Casp6 in SB at room temperature for 5 minutes. […]

Structure (SMILES) | Casp6 activity rise within 15 min of inhibitor removal [%] | decrease of Casp6 VEIDase activity within 15 min of treatment [%] | decrease of Casp6 activity [%] | activity at 100 µM [%] | IC50 [µM]
CCC(C)[C@H](NC(=O)[C@H](CCC(=O)O)NC(=O)[C@@H](NC(=O)OCc1ccccc1)C(C)C)C(=O)N[C@H](/C=C/S(C)(=O)=O)CC(=O)O (stereo partly shown) [NWL-117] | 43 | 88 | 80 | 85 | 4.82
CCC(C)[C@H](NC(=O)[C@H](CCC(=O)O)NC(=O)[C@@H](NC(=O)OCc1ccccc1)C(C)C)C(=O)N[C@H](/C=C(\Cl)S(C)(=O)=O)CC(=O)O (stereo partly shown) [NWL-154] | 21 | 95 | 96 | 30 | 3.63

Source: publication PMC5329948, “Caspase vinyl sulfone small molecule inhibitors prevent axonal degeneration in human neurons and reverse cognitive impairment in Caspase-6-overexpressing mice” (Molecular Neurodegeneration, 2017)
